Measurements taken from patent US20100183710A1, “OMEPRAZOLE FORM B” (priority 2005, published 2010).

Tests used:
[1] = as described in U.S. Pat. No. 6,150,380; cited from earlier work
[2] = Long-term stability study of omeprazole Form B (polymorphic form by XRPD); assay type: physicochemical
Text: Omeprazole Form B prepared using a method similar to the one described in Example 1 was subjected to long-term stability studies. Each sample was packed in a clear polythene bag, filled with nitrogen, tied with a tag and kept in a black polythene bag along with silica pouch filled with nitrogen and then sealed. Finally, the above triple laminated bag along with silica pouch was sealed and stored in a HDPE drum. The color, moisture content, purity and the polymorphic form of the product was checked at intervals during storage. The results for compliance of polymorphic form are tabulated below, where “ND” means not detected by XRPD. 950 mg of Form B and 50 mg of Form A of Omeprazole were weighed and combined to form a weight ratio of Form B to Form A of 95:5. The mixture was ground three times in a mortar to get a uniform powder. [table] FIG. 6 is a scan for pure omeprazole Form B. FIG. 5 is the XRPD scan for the standard, containing 5% by weight of omeprazole Form A, and the scan of FIG. 6 has been superimposed for comparison.

Row | Color, moisture content and purity of the product during storage ([2]; long-term stability storage) | Conversion into crystalline Form A during storage ([2]; storage in a container for 6 months at 40° C. and 60% relative humidity) | Compound | Conversion into Form A [1] | Hygroscopicity relative to omeprazole Form B [1] | Thermodynamic stability relative to omeprazole Form B [1]
1 | remained substantially the same | does not convert into crystalline Form A | COc1ccc2[nH]c([S+]([O-])Cc3ncc(C)c(OC)c3C)nc2c1 (centres unmarked) [Omeprazole Form B, 5-Methoxy-2-[[(4-methoxy-3,5-dimethyl-2-pyridinyl)methyl]sulfinyl]-1H-benzimidazole] | can completely or partially convert into Form A |  | 
2 |  |  | COc1ccc2[nH]c([S+]([O-])Cc3ncc(C)c(OC)c3C)nc2c1 (centres unmarked) [omeprazole Form A, 5-Methoxy-2-[[(4-methoxy-3,5-dimethyl-2-pyridinyl)methyl]sulfinyl]-1H-benzimidazole] |  | less hygroscopic | thermodynamically more stable
